Patent US7282339B2, “Competitive immunoassay” (Invitrogen Corporation, priority 2003, dated 2007)

Test system: ligand-detection complex of Compound 15 and P-Tyr-100 antiphosphotyrosine monoclonal antibody
Assay: Displacement of phosphotyramide-dye ligand analog by phosphotyrosine (Example 21)
Type: binding, mouse
Conditions: 10 μM
Protocol: Solutions containing 100 nM ligand analog Compound 15 or ligand-detection complex (100 nM (B573-85-HCK)+100 nM P-Tyr-100 antiphosphotyrosine monoclonal antibody (Cell Signaling Technology, Beverly, Mass.)) were prepared in 50 mM Tris-HCl pH 7.5, 10 mM MgCl2, 0.01% Brij-35, 100 μM ATP, 2 mM DTT, 1 mM EGTA. Fluorescence emission spectra of these samples were recorded on a Hitach F-4500 spectrofluorometer using an excitation wavelength of 470 nm. O-phosho-L-tyrosine (Sigma Chemical Co., St. Louis, Mo.) or phosphotyrosine peptide (phospho-pp60 c-src (521-533); TSTEPQY*QPGENL, Bachem California, Inc. Torrance, Calif.) at a concentration of 10 μM were added to samples of the detection complex and the resulting change in fluorescence was measured. See, FIG. 13.

Question: With `N[C@@H](Cc1ccc(OP(=O)(O)O)cc1)C(=O)O` [Phosphotyrosine, O-phosho-L-tyrosine] as the compound, how does the “displacement of phosphotyramide-dye ligand analog from antibody binding sites” value read?
Answer: Minimal Displacement
